Test results reported in publication PMC9143880, “Improving Antimicrobial Activity and Physico-Chemical Properties by Isosteric Replacement of 2-Aminothiazole with 2-Aminooxazole” (Pharmaceuticals, 2022).
Values after ≈ are worked out from the molar mass of the structure shown. Like-named read-outs stand apart in the source and are kept apart here.

Legend:
[1] = tested on: M. kansasii DSM 44162 (ATCC 12478); assay: Antimycobacterial MIC, microdilution broth / resazurin; assay type: cell-based; details: Mycobacterium kansasii; resazurin after 96 h; read-out: MIC M. kansasii
[2] = tested on: Lichtheimia corymbifera CCM 8077; assay: Antifungal microdilution broth (EUCAST); details: Lichtheimia corymbifera, CCM8077, 24 h, read-out: MIC LC
[3] = tested on: Staphylococcus aureus subsp. aureus (MRSA) CCM 4750 (ATCC 43300); assay: Antibacterial microdilution broth (EUCAST); assay type: cell-based; details: Staphylococcus aureus; 24h incubation; read-out: MIC MRSA
[4] = tested on: M. smegmatis DSM 43465 (ATCC 607); assay: Antimycobacterial MIC, microdilution broth / resazurin; assay type: cell-based; details: Mycolicibacterium smegmatis, read-out: MIC M. smegmatis
[5] = tested on: Candida krusei CCM 8271 (ATCC 6258); assay: Antifungal microdilution broth (EUCAST); details: Pichia kudriavzevii, 24 h, read-out: MIC CK
[6] = tested on: Mycobacterium tuberculosis H37Ra ITM-M006710 (ATCC 9431); assay: Antimycobacterial MIC, microdilution broth / Alamar Blue (resazurin); assay type: cell-based; details: Mycobacterium tuberculosis, 120 h, Middlebrook 7H9, resazurin after 120 h; read-out: Mtb H37Ra MIC
[7] = tested on: M. aurum DSM 43999 (ATCC 23366); assay: Antimycobacterial MIC, microdilution broth / resazurin; assay type: cell-based; details: Mycolicibacterium aurum, read-out: MIC M. aurum
[8] = tested on: Aspergillus fumigatus ATCC 204305; assay: Antifungal microdilution broth (EUCAST); details: Aspergillus fumigatus, ATCC204305, 24 h, read-out: MIC AF
[9] = tested on: Aspergillus flavus CCM 8363; assay: Antifungal microdilution broth (EUCAST); details: Aspergillus flavus, CCM8363, 24 h, read-out: MIC AFla
[10] = RP-UHPLC lipophilicity parameter log k’w; assay type: physicochemical; details: for log k’w: RP-UHPLC, acetonitrile/water, log k extrapolated to 0% acetonitrile; for logkw: experimental lipophilicity parameter
Description: Lipophilicity and water solubility of the drug candidates are important parameters as they are often directly related to their ADME properties in the organism. Lipophilicity is usually expressed as the logarithm of the partition coefficient in n-octanol/water (log P). Due to its laborious determination, especially in the HTS screening, other experimental methods such as RP-HPLC log k’w or purely computational approaches such as Clog P were proposed and have been established as reasonable estimators of true lipophilicity. To investigate the changes in lipophilicity upon introduction of oxazole in the title compounds, we determined the log k’w of all derivatives and compared respective values among the pairs.
The log k of the synthesized compounds was measured using the same instrument (single measurement per concentration), software, and column as was used in the purity evaluation. Working solutions were diluted as described above for purity determination. The log k parameter was calculated after the UHPLC measurements using isocratic mode with mobile phase acetonitrile (B)/water (A) in a set of concentrations of 40, 45, 50% and 20, 30, 40% B for subtype I and subtype II, respectively.

[11] = tested on: Trichophyton interdigitale CCM 8377 (ATCC 9533); assay: Antifungal microdilution broth (EUCAST); details: Trichophyton interdigitale, 72 h, read-out: MIC TI
[12] = tested on: Acinetobacter baumannii DSM 30007 (ATCC 19606); assay: Antibacterial microdilution broth (EUCAST); assay type: cell-based; details: Acinetobacter baumannii; 24h incubation; read-out: MIC AB
[13] = tested on: Candida albicans CCM 8320 (ATCC 24433); assay: Antifungal microdilution broth (EUCAST); details: Candida albicans, 24 h, read-out: MIC CA
[14] = tested on: Staphylococcus epidermidis CCM 4418 (ATCC 12228); assay: Antibacterial microdilution broth (EUCAST); assay type: cell-based; details: Staphylococcus epidermidis; 24h incubation; read-out: MIC SE
[15] = tested on: Escherichia coli CCM 3954 (ATCC 25922); assay: Antibacterial microdilution broth (EUCAST); assay type: cell-based; details: Escherichia coli; 24h incubation; read-out: MIC EC
[16] = tested on: Candida parapsilosis CCM 8260 (ATCC 22019); assay: Antifungal microdilution broth (EUCAST); details: Lodderomyces parapsilosis, 24 h, read-out: MIC CP
[17] = tested on: M. avium DSM 44156 (ATCC 25291); assay: Antimycobacterial MIC, microdilution broth / resazurin; assay type: cell-based, Mycobacterium avium; details: Mycobacterium avium, read-out: MIC M. avium
[18] = tested on: Candida tropicalis CCM 8264 (ATCC 750); assay: Antifungal microdilution broth (EUCAST); details: Candida tropicalis, 24 h, read-out: MIC CT
[19] = tested on: Pseudomonas aeruginosa CCM 3955 (ATCC 27853); assay: Antibacterial microdilution broth (EUCAST); assay type: cell-based; details: Pseudomonas aeruginosa; 72h incubation; read-out: MIC PA
[20] = tested on: Staphylococcus aureus subsp. aureus CCM 4223 (ATCC 29213); assay: Antibacterial microdilution broth (EUCAST); assay type: cell-based; details: Staphylococcus aureus; 24h incubation; read-out: MIC SA
[21] = tested on: Enterococcus faecalis CCM 4224 (ATCC 29212); assay: Antibacterial microdilution broth (EUCAST); assay type: cell-based; details: Enterococcus faecalis; 24h incubation; read-out: MIC EF
HepG2 cells = assay: HepG2 cytotoxicity screening (CellTiter 96); assay type: cell-based, human; details: Homo sapiens, HepG2, 24 h, 24 h incubation, CellTiter 96; * above highest tested concentration; ** limited by insolubility in medium

SMILES	melting point	MIC [2]	MIC [3]	MIC ([4]; resazurin after 48 h)	MIC [5]	MIC [6]	MIC [8]	MIC [9]	log k’w [10]	logkw [10]	MIC [11]	MIC [12]	MIC [13]	MIC [14]	MIC [15]	MIC [16]	MIC [18]	MIC [19]	MIC [20]	MIC [21]	further results
O=C(Nc1ncco1)c1cnccn1 [Compound 8b]	160 to 164 °C	500 µM (≈ 95.1 µg/mL)	> 500 µM	≥ 500 µg/mL	> 500 µM	31.2 µg/mL (≈ 164 µM)	> 500 µM	> 500 µM	0.154	0.154	500 µM (≈ 95.1 µg/mL)	> 500 µM	> 500 µM	> 500 µM	> 500 µM	> 500 µM	> 500 µM	> 500 µM	> 500 µM	> 500 µM	MIC [1]: 15.6 µg/mL (≈ 82.2 µM); MIC ([7]; 72 h): 31.2 µg/mL (≈ 164 µM); MIC ([17]; resazurin after 96 h): 62.5 µg/mL (≈ 329 µM)
O=C(Nc1nccs1)c1cnc(Cl)cn1 [Compound 9a]	197 to 200 °C	> 500 µM	> 500 µM	≥ 500 µg/mL	> 500 µM	31.2 µg/mL (≈ 130 µM)	500 µM (≈ 120 µg/mL)	500 µM (≈ 120 µg/mL)	1.941	1.941	> 500 µM	> 500 µM	> 500 µM	> 500 µM	> 500 µM	> 500 µM	> 500 µM	> 500 µM	> 500 µM	> 500 µM	MIC [1]: < 3.91 µg/mL; MIC ([7]; resazurin after 72 h): ≥ 500 µg/mL; MIC ([17]; resazurin after 96 h): 15.6 µg/mL (≈ 64.9 µM)
O=C(Nc1ncco1)c1cnc(Cl)cn1 [Compound 9b]	160 to 164 °C	500 µM (≈ 112 µg/mL)	> 500 µM	62.5 µg/mL (≈ 278 µM)	250 µM (≈ 56.2 µg/mL)	31.2 µg/mL (≈ 139 µM)	500 µM (≈ 112 µg/mL)	> 500 µM	0.958	0.958	62.5 µM (≈ 14 µg/mL)	> 500 µM	250 µM (≈ 56.2 µg/mL)	> 500 µM	> 500 µM	500 µM (≈ 112 µg/mL)	> 500 µM	> 500 µM	> 500 µM	> 500 µM	MIC [1]: < 3.91 µg/mL; MIC ([7]; resazurin after 72 h): 15.6 µg/mL (≈ 69.6 µM); MIC ([17]; 96 h): 31.2 µg/mL (≈ 139 µM)
O=C(Nc1ncco1)c1cnc2ccccc2n1 [Compound 10b]	163 to 165 °C	500 µM (≈ 120 µg/mL)	> 500 µM	62.5 µg/mL (≈ 260 µM)	250 µM (≈ 60.1 µg/mL)	15.6 µg/mL (≈ 65 µM)	500 µM (≈ 120 µg/mL)	> 500 µM	1.493	1.493	250 µM (≈ 60.1 µg/mL)	> 500 µM	500 µM (≈ 120 µg/mL)	500 µM (≈ 120 µg/mL)	> 500 µM	500 µM (≈ 120 µg/mL)	500 µM (≈ 120 µg/mL)	> 500 µM	500 µM (≈ 120 µg/mL)	> 500 µM	MIC ([7]; 72 h): 15.6 µg/mL (≈ 65 µM); IC50 (HepG2 cells): > 1000 µM
O=C(Nc1nc(-c2ccccc2)co1)c1ccncc1 [Compound 13b]	168 to 171 °C	> 500 µM	> 500 µM	125 µg/mL (≈ 471 µM)	> 500 µM	31.2 µg/mL (≈ 118 µM)	> 500 µM	> 500 µM	1.163	1.163	500 µM (≈ 133 µg/mL)	> 500 µM	> 500 µM	125 µM (≈ 33.2 µg/mL)	> 500 µM	> 500 µM	> 500 µM	> 500 µM	500 µM (≈ 133 µg/mL)	> 500 µM	MIC ([7]; 72 h): 31.2 µg/mL (≈ 118 µM); IC50 (HepG2 cells): 879 µM
Cc1cc(C(=O)Nc2nc(-c3ccccc3)cs2)cc(Cl)n1 [Compound 16a]	92 to 96 °C	> 125 µM	> 500 µM		> 125 µM	7.81 µg/mL (≈ 23.7 µM)	> 125 µM	> 125 µM	3.314	3.314	> 125 µM	> 500 µM	> 125 µM	> 500 µM	> 500 µM	> 125 µM	> 125 µM	> 500 µM	> 500 µM	> 500 µM	MIC [1]: 3.91 µg/mL (≈ 11.9 µM); MIC ([4]; 48 h): 7.81 µg/mL (≈ 23.7 µM); MIC ([7]; resazurin after 72 h): 15.6 µg/mL (≈ 47.4 µM); MIC ([17]; 96 h): 7.81 µg/mL (≈ 23.7 µM)
